Consider 1 molecule from ChEMBL document CHEMBL4190174 (2016).

The test system of assay [1] is U373 MG. In words: Growth inhibition of MGMT-transfected human U373 cells after 7 days by MTT assay. In kind it is functional, U-373MG ATCC. To be noted: 168 h. (In general: Formazan colour is commonly taken as a measure of viable cells.)
Assay [2] deals with dsDNA. In words: Induction of double stranded DNA break in MGMT-transfected human U373 cells assessed as increase in gamma-H2AX level at 100 uM after 72 hrs by flow cytometry. In kind it is cell-based. On the technique in general: Flow cytometry measures light scatter and fluorescence of single cells or particles in a stream.
Another assay deals with Escherichia coli. In words: Induction of Escherichia coli linearized pBR322 DNA alkylation at clusters of 3/5 guanines using 5'-end labeled [gamma32P]ATP primer after 2 hrs by PAGE based taq polymerase stop assay.
Another assay concerns HCT-116. In words: Growth inhibition of human HCT116 cells harboring hMLH1 mutation relative to temozolomide. The class given is functional.
Assay [3] concerns SNB-19. In words: Growth inhibition of MGMT-transfected human SNB19 cells after 7 days by MTT assay. Particulars: SNB-19, 168 h. The class given is functional.
The test system of assay [4] is SNB-19. In words: Growth inhibition of empty vector transfected human SNB19 cells after 7 days by MTT assay. In kind it is functional. Particulars: SNB-19, 168 h.
Assay [5] can be described thus: Growth inhibition of human U373VR cells by MTT assay. The class given is functional.
Assay [6] concerns U373 MG. Briefly: Growth inhibition of empty vector transfected human U373 cells after 7 days by MTT assay. In kind it is functional, U-373MG ATCC. Particulars: 168 h.
Assay [7] concerns DNA. Briefly: Induction of Escherichia coli pBR322 DNA cleavage assessed as covalent modification at N-7 guanine at 10 to 1000 uM after 2 hrs by PAGE based autoradiographic method. The class given is nucleic-acid assay.
The nature of assay [8]: Growth inhibition of human SNB19VR cells by MTT assay. In kind it is functional.
The subject of assay [9] is DNA. Briefly: Induction of Escherichia coli pBR322 DNA interstrand cross linking using 5'-end labeled [gamma32P]ATP primer at <=1000 uM after 2 to 40 hrs by PAGE based autoradiographic method. In kind it is nucleic-acid assay.
A further assay concerns DLD-1. In words: Growth inhibition of human DLD1 cells harboring hMSH6 mutation relative to temozolomide. The class given is functional.
Assay [10] concerns dsDNA. Briefly: Induction of double stranded DNA break in MGMT-transfected human U373 cells assessed as increase in gamma-H2AX level at 100 uM after 72 hrs by flow cytometry relative to control. The class given is cell-based.

The source made the active and inactive calls. The calls are words filed in the database; no cut-off is given here.

Consider `C#CCn1nnc2c(C(N)=O)ncn2c1=O`, for which the concentration for 50% growth inhibition (GI50) is 36.1 µM in the assay on U373 MG [1]; 37.8 µM with SNB-19 [3]; 35.6 µM with SNB-19 [4]; under 50 µM in [5]; 37.6 µM with U373 MG [6]; under 50 µM in assay [8]. Besides, the result in the assay with dsDNA [2] and in the assay on DNA [7] was Active. In the assay on Escherichia coli, the Activity result was “Dose-dependent effect”. Besides, the results for the “fold change (FC)” value in the assay with HCT-116, in the assay with DLD-1 and in the assay with dsDNA [10] were over 10, over 10 and over 2, respectively. Also, the result in the assay with DNA [9] was inactive.

For orientation: GI50 means the concentration at which growth is held to half of that of the control. A lower GI50 goes with greater sensitivity of the cells.
